Molecular target: T1, Human TRPA1 expressing CHO cells (Homo sapiens, UniProt O75762)
T1 construct: expressed in transfected cells; host or cells: CHO cells (under G-418 selection)
Experiment: 45Calcium uptake assay: inhibition of AITC induced cellular uptake of radioactive calcium
Format: cell-based
Conditions: AITC 30 μM, human TRPA1 CHO cells; for inhibition at 1 µM: 1.0 μM test compound, read-out: Percentage inhibition at 1.0 μM; for inhibition at 10 µM: 10.0 μM test compound, read-out: Percentage inhibition at 10.0 μM; for IC50: read-out: IC50 value (range)
Method: The illustrative examples of the present invention are screened for TRPA1 activity according to a modified procedure described in (a) Tóth, A. et al. Life Sciences (2003), 73, 487-498. ([…]. et al. Proc. Natl. Acad. Sci. U.S.A., (2007), 104, 13525-13530. The screening of the compounds can be carried out by other methods and procedures known to persons skilled in the art. Screening for TRPA1 Antagonist Using the ^45Calcium Uptake Assay The inhibition of TRPA1 receptor activation was measured as inhibition of allyl isothiocyanate (AITC) induced cellular uptake of radioactive calcium. […] Final concentration of DMSO in the reaction was 0.5% (v/v). […] Cells were seeded 24 h prior to the assay in 96 well plates so as to get 50,000 cells per well on the day of experiment. Cells were treated with test compounds for 10 min followed by addition of AITC at a final concentration of 30 μM and 5 μCi/ml ^45Ca^+2 for 3 min. […] Radioactivity in the lysate was measured in Packard Top count after addition of liquid scintillant. Concentration response curves were plotted as a % of maximal response obtained in the absence of test antagonist. IC50 value was calculated from concentration response curve by nonlinear regression analysis using GraphPad PRISM software.

T1 sequence (O75762 whole entry): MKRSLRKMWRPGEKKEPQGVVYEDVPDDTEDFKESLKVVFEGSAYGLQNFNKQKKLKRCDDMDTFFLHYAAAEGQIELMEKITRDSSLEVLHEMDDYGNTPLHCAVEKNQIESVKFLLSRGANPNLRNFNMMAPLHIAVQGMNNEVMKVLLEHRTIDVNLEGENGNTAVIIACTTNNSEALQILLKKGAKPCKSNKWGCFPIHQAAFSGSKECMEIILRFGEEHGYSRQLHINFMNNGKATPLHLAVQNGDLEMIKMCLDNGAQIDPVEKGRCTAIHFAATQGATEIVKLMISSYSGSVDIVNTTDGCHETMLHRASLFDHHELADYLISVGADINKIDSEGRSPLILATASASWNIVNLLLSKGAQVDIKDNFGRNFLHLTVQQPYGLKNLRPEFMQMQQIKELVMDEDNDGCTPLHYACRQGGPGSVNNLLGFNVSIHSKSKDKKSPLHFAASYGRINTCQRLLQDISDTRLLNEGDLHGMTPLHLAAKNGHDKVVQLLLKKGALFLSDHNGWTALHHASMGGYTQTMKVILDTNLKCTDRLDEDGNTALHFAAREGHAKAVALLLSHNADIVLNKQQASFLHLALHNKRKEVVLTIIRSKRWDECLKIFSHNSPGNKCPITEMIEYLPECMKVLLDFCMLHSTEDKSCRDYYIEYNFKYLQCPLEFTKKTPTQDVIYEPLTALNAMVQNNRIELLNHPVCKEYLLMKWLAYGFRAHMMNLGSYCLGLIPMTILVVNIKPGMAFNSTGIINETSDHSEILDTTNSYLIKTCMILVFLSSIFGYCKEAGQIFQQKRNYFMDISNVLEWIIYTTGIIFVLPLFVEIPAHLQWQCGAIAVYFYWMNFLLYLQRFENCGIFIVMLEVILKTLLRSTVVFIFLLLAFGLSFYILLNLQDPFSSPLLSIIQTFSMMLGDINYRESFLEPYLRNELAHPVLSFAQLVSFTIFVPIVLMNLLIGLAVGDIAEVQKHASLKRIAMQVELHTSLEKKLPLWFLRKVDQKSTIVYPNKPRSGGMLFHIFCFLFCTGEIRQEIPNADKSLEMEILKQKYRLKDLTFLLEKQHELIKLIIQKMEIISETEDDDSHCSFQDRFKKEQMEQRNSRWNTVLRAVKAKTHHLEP

| inhibition at 1 µM [%] | inhibition at 10 µM [%] | IC50 [nM] | Compound |
| --- | --- | --- | --- |
| 95.5 | 99.1 | > 100 | Cn1c(=O)c2c(CC(=O)Nc3nc(-c4cccc(Cl)c4)cs3)cccc2n(C)c1=O [Example 11, N1-[4-(3-Chlorophenyl)-1,3-thiazol-2yl]-2-(1,3-dimethyl-2,4-dioxo-1,2,3,4-tetrahydro-5-quinazolinyl)acetamide] |
| 98.7 | 99.2 | 50.1 to 100 | Cn1c(=O)c2c(CC(=O)Nc3nc(-c4ccc(Br)cc4)cs3)cccc2n(C)c1=O [Example 12] |
| 74.1 | 99.8 | < 50 | Cn1c(=O)c2c(CC(=O)Nc3nc(-c4ccc(F)cc4Cl)cs3)cccc2n(C)c1=O [Example 54] |
| 5.71 | 9.15 |  | COc1ccc(-c2csc(NC(=O)Cc3cccc4c3c(=O)n(C)c(=O)n4C)n2)cc1F [Example 43] |
| 95.1 | 100 | < 50 | Cn1c(=O)c2c(CC(=O)Nc3nc(-c4ccc(C(F)(F)F)cc4F)cs3)cccc2n(C)c1=O [Example 36, N1-[4-(2-Fluoro-4-trifluoromethylphenyl)-1,3-thiazol-2-yl]-2-(1,3-dimethyl-2,4-1,2,3,4-tetrahydro-5-quinazolinyl)acetamide] |
| 50.4 | 79.8 |  | Cn1c(=O)c2c(CC(=O)Nc3nc(-c4c(F)cccc4F)cs3)cccc2n(C)c1=O [Example 33, N1-[4-(2,6-Difluorophenyl)-1,3-thiazol-2-yl]-2-(1,3-dimethyl-2,4-dioxo-1,2,3,4-tetrahydro-5-quinazolinyl)acetamide] |
| 97.8 | 99.7 | < 50 | Cn1c(=O)c2c(CC(=O)Nc3nc(-c4ccc(OC(F)F)c(Cl)c4)cs3)cccc2n(C)c1=O [Example 57, N1-{4-[3-Chloro-4-(difluoromethoxy)phenyl]-1,3-thiazol-2-yl}-2-(1,3-dimethyl-2,4-dioxo-1,2,3,4-tetrahydro-5-quinazolinyl)acetamide] |
| 98.6 | 99 | 50.1 to 100 | Cn1c(=O)c2c(CC(=O)Nc3nc(-c4ccc(F)c(Cl)c4)cs3)cccc2n(C)c1=O [Example 49, N1-[4-(3-Chloro-4-fluorophenyl)-1,3-thiazol-2-yl]-2-(1,3-dimethyl-2,4-dioxo-1,2,3,4-tetrahydro-5-quinazolinyl)acetamide] |
| 15.8 | 85 |  | Cn1c(=O)c2c(CC(=O)Nc3nc(-c4cc(F)cc(F)c4)cs3)cccc2n(C)c1=O [Example 34, N1-[4-(3,5-Difluorophenyl)-1,3-thiazol-2-yl]-2-(1,3-dimethyl-2,4-dioxo-1,2,3,4-tetrahydro-5-quinazolinyl)acetamide] |
| 92.5 | 95.3 | > 100 | Cn1c(=O)c2c(CC(=O)Nc3nc(-c4cc(Cl)ccc4F)cs3)cccc2n(C)c1=O [Example 52, N1-[4-(5-Chloro-2-fluorophenyl)-1,3-thiazol-2-yl]-2-(1,3-dimethyl-2,4-dioxo-1,2,3,4-tetrahydro-5-quinazolinyl)acetamide] |
| 100 | 100 | < 50 | Cn1c(=O)c2c(CC(=O)Nc3nc(-c4ccc(Cl)c(C(F)(F)F)c4)cs3)cccc2n(C)c1=O [Example 55, N1-[4-(4-Chloro, 3-trifluoromethylphenyl)-1,3-thiazol-2-yl]-2-(1,3-dimethyl-2,4-dioxo-1,2,3,4-tetrahydro-5-quinazolinyl)acetamide] |
| 51.6 | 90.3 |  | Cn1c(=O)c2c(CC(=O)Nc3nc(-c4ccc(F)cc4C(F)(F)F)cs3)cccc2n(C)c1=O [Example 39, N1-[4-(4-Fluoro-2-trifluoromethylphenyl)-1,3-thiazol-2-yl]-2-(1,3-dimethyl-2,4-dioxo-1,2,3,4-tetrahydro-5-quinazolinyl)acetamide] |
| 94.2 | 96.7 | > 100 | Cc1cc(-c2csc(NC(=O)Cc3cccc4c3c(=O)n(C)c(=O)n4C)n2)ccc1Cl [Example 58, N1-[4-(4-Chloro-3-methylphenyl)-1,3-thiazol-2yl]-2-(1,3-dimethyl-2,4-dioxo-1,2,3,4-tetrahydro-5-quinazolinyl)acetamide] |
| 83.6 | 98.9 | < 50 | COc1c(F)cc(-c2csc(NC(=O)Cc3cccc4c3c(=O)n(C)c(=O)n4C)n2)cc1F [Example 71, N1-[4-(3,5-Difluoro-4-methoxyphenyl)-1,3-thiazol-2-yl]-2-(1,3-dimethyl-2,4-dioxo-1,2,3,4-tetrahydroquinazolin-5-yl)acetamide] |
| 97.5 | 99.3 | > 100 | Cn1c(=O)c2c(CC(=O)Nc3nc(-c4ccc(Cl)cc4F)cs3)cccc2n(C)c1=O [Example 51, N1-[4-(4-Chloro-2-fluorophenyl)-1,3-thiazol-2-yl]-2-(1,3-dimethyl-2,4-dioxo-1,2,3,4-tetrahydro-5-quinazolinyl)acetamide] |

More lines, now with the values behind:

| Compound | inhibition at 1 µM [%] | inhibition at 10 µM [%] | IC50 [nM] |
| --- | --- | --- | --- |
| Cn1c(=O)c2c(CC(=O)Nc3nc(-c4cc(C(F)(F)F)ccc4F)cs3)cccc2n(C)c1=O [Example 40, N1-[4-(2-Fluoro-5-trifluoromethylphenyl)-1,3-thiazol-2-yl]-2-(1,3-dimethyl-2,4-dioxo-1,2,3,4-tetrahydro-5-quinazolinyl)acetamide] | 82.7 | 98.7 | > 100 |
| Cn1c(=O)c2c(CC(=O)Nc3nc(-c4ccc(C5CCCCC5)cc4)cs3)cccc2n(C)c1=O [Example 18, N1-[4-(4-Cyclohexylphenyl)-1,3-thiazol-2yl]-2-(1,3-dimethyl-2,4-dioxo-1,2,3,4-tetrahydro-5-quinazolinyl)acetamide] | 79.3 | 88.3 | < 50 |
| Cn1c(=O)c2c(CC(=O)Nc3nc4ccccc4s3)cccc2n(C)c1=O [Example 75] | 5.6 | 30.5 |  |
| Cn1c(=O)c2c(CC(=O)Nc3nc(-c4cn(C)c5ccccc45)cs3)cccc2n(C)c1=O [Example 74] | 96.3 | 97.7 | > 100 |
| CC(C)c1ccc(-c2csc(NC(=O)Cc3cccc4c3c(=O)n(C)c(=O)n4C)n2)cc1 [Example 22, N1-[4-(4-isopropylphenyl)-1,3-thiazol-2-yl]-2-(1,3-dimethyl-2,4-dioxo-1,2,3,4-tetrahydro-5-quinazolinyl)acetamide] | 95.3 | 98 | 50.1 to 100 |
| Cn1c(=O)c2c(CC(=O)Nc3nc(-c4cc(Cl)ccc4Cl)cs3)cccc2n(C)c1=O [Example 46, N1-[4-(2,5-Dichlorophenyl)-1,3-thiazol-2-yl]-2-(1,3-dimethyl-2,4-dioxo-1,2,3,4-tetrahydro-5-quinazolinyl)acetamide] | 84.3 | 87.9 | > 100 |
| CCn1c(=O)c2c(CC(=O)Nc3nc(-c4ccc(Cl)cc4)cs3)cccc2n(CC)c1=O [Example 25, N1-[4-(4-Chlorophenyl)-1,3-thiazol-2-yl]-2-(1,3-diethyl-2,4-dioxo-1,2,3,4-tetrahydro-5-quinazolinyl)acetamide] | 20.4 | 30.8 |  |
| Cn1c(=O)c2c(CC(=O)Nc3nc(-c4ccc(C(F)(F)F)c(F)c4F)cs3)cccc2n(C)c1=O [Example 65, N1-[4-(2,3-Difluoro-4-trifluormethylphenyl)-1,3-thiazol-2-yl]-2-(1,3-dimethyl-2,4-dioxo-1,2,3,4-tetrahydro-5-quinazolinyl)acetamide] | 99.4 | 99.6 | < 50 |
| Cc1cc2nc(NC(=O)Cc3cccc4c3c(=O)n(C)c(=O)n4C)sc2cc1C [Example 77, N1-(5,6-Dimethylbenzo[d][1,3]thiazol-2-yl)-2-(1,3-dimethyl-2,4-dioxo-1,2,3,4-tetrahydro-5-quinazolinyl)acetamide] | 49.1 | 95.5 |  |
| CCCn1c(=O)c2c(CC(=O)Nc3nc(-c4cccc(C(F)(F)F)c4)cs3)cccc2n(CCC)c1=O [Example 26, N1-[4-(3-Trifluoromethylphenyl)-1,3-thiazo-2-yl]-2-(1,3-dipropyl-2,4-dioxo-1,2,3,4-tetrahydro-5-quinazolinyl)acetamide] | 13.6 | 5.39 |  |
| Cn1c(=O)c2c(CC(=O)Nc3ccc(-c4ccc(Cl)cc4)cn3)cccc2n(C)c1=O [Example 5, N1-[5-(4-chlorophenyl)-2-pyridyl]-2-(1,3-dimethyl-2,4-dioxo-1,2,3,4-tetrahydro-5-quinazolinyl)acetamide] | 52.2 | 71.5 |  |
| Cn1c(=O)c2c(CC(=O)Nc3nc(C4CCCCC4)cs3)cccc2n(C)c1=O [Example 7, N1-[4-(4-Cyclohexyl)-1,3-thiazol-2yl]-2-(1,3-dimethyl-2,4-dioxo-1,2,3,4-tetrahydro-5-quinazolinyl)acetamide] | 62.2 | 60.5 |  |

— patent US7951814B2, “Quinazolinedione derivatives as TRPA1 modulators” (Glenmark Pharmaceuticals, S.A., priority 2008, dated 2011)
